Laboratory results taken from patent publication US5700682A, “Mechanism based screen for retinoid X receptor agonists and antagonists” (American Cyanamid Company, priority 1995, dated 1997).

molecular target: T1, RXRα (Homo sapiens, UniProt P19793); test: Plate assay (X-GAL, blue halo) as a screen to detect RXRα agonists; type: cell-based; settings: discs containing hormone on agar plate with X-GAL; FIG. 7
T1 construct: reporter YRpA: two apoAI site A copies-CYC1-lacZ
T1 sequence (P19793 1-462): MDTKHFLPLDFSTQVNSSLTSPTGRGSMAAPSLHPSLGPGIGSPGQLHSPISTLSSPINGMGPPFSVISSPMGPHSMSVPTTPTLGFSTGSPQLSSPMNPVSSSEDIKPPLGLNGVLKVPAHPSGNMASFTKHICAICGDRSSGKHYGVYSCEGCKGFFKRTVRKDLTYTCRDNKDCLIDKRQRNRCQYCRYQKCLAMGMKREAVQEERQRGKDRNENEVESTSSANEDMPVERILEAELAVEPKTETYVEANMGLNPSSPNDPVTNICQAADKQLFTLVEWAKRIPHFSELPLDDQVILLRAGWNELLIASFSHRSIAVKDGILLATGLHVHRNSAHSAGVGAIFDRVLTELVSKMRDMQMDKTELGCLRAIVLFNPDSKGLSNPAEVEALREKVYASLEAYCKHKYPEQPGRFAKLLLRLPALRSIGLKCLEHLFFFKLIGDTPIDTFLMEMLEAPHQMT
Text: Yeast cells containing the RXRα expression plasmid and the reporter construct are inoculated in Yeast media containing the chromogenic substrate, X-GAL® (a registered trademark of 5-bromo-4-chloro-3-indolyl-β-D-galactopyranoside, commercially available from Gibco BRL, Bethesda, Md.).
To identify nontoxic ligands of RXRα, the present invention includes a novel screen for detecting compounds having retinoid X receptor agonist or antagonist activity by the following steps: (1) Providing a yeast strain which expresses the […] and activates the reporter plasmid containing apoAI gene site A or a mutated variant thereof; (2) incubating the compound in suitable media and a colorless chromogenic substrate; and (3) examining the media for development of color. FIG. 7 illustrates the screen as a plate assay which detects RXRα agonists. Yeast cells containing the RXRα expression plasmid and the reporter construct are inoculated in yeast media containing the chromogenic substrate, X-GAL® (a registered trademark of 5-bromo-4-chloro-3-indolyl-β-D-galactopyranoside, commercially available from Gibco BRL, Bethesda, Md.). Other well-known chromogenic substrates may substitute for X-GAL®. Then, discs containing different test compounds may be placed on top of the agar plate. Induction of the reporter enzyme by the ligands of RXRα is reflected by the formation of a color.

| SMILES | Induction of the reporter enzyme as reflected by formation of the blue halo |
| --- | --- |
| CC(=O)[C@H]1CC[C@H]2[C@@H]3CCC4=CC(=O)CC[C@]4(C)[C@H]3CC[C@]12C [progesterone] | observed for 9-cis retinoic acid and all-trans-retinoic acids only |
| C[C@]12CCC(=O)C=C1CC[C@@H]1[C@@H]2C(=O)C[C@@]2(C)[C@H]1CC[C@]2(O)C(=O)CO [cortisone] | observed for 9-cis retinoic acid and all-trans-retinoic acids only |
| CC(C)(O)CC[C@@H](O)[C@](C)(O)[C@H]1CC[C@@]2(O)C3=CC(=O)[C@@H]4C[C@@H](O)[C@@H](O)C[C@]4(C)[C@H]3CC[C@]12C [20-hydroxyecdysone] | observed for 9-cis retinoic acid and all-trans-retinoic acids only |
| C[C@]12CC[C@H]3[C@@H](CCC4=CC(=O)CC[C@@]43C)[C@@H]1CC[C@@H]2O [testosterone] | observed for 9-cis retinoic acid and all-trans-retinoic acids only |

test system: RXRα binding to the apoAI gene site A; test: not given; settings: reticulocyte lysates; cited from earlier work

| SMILES | Binding of in vitro translated RXRα to apoAI gene site A on supplementing lysates with ligand |
| --- | --- |
| CC1=C(/C=C/C(C)=C/C=C/C(C)=C/C(=O)O)C(C)(C)CCC1 [all-trans-RA, all-trans-retinoic acid] | to the lesser extent |
| CC1=C(/C=C/C(C)=C\C=C\C(C)=C\C(=O)O)C(C)(C)CCC1 [9-cis-RA, 9-cis-retinoic acid] | does not bind to the apoAI gene site A unless these lysates are supplemented |
